Test system: diarrhea-predominant IBS subjects
Experiment: 3007 Study: open-label 52-week safety study, adverse events and withdrawals
Details: Placebo/Cilansetron 2 mg

Cc1nccn1C[C@H]1CCc2c(c3cccc4c3n2CCC4)C1=O [cilansetron, (R)-(−)-4,5,6,8,9,10-hexahydro-10-[(2-methyl-1H-imidazol-1-yl)methyl]-11H-pyrido-[3,2,1-jk]-carbazol-11-one]
5 (2%) n (%): TEAE leading to permanent discontinuation: Flatulence (N=279)
2 (<1%) n (%): TEAE: Rectal Tenesmus | TEAE: Rheumatoid Arthropathies | TEAE: Skin Structures and Soft Tissue Infections | TEAE: Sleep Apnoea Syndrome | TEAE: Sleep Apnoeas | TEAE: Tendonitis | TEAE: Urine Ketone Body Present | TEAE: Urine Leukocyte Esterase Positive | TEAE: Vascular Auscultatory Investigations | TEAE: Vascular Tests NEC (Incl Blood Pressure) | TEAE: Viral Infection NOS | TEAE leading to permanent discontinuation: Abdominal Distension (N=279) | TEAE leading to permanent discontinuation: Abdominal Pain Lower (N=279) | TEAE leading to permanent discontinuation: Diarrhoea NOS (N=279) | TEAE leading to permanent discontinuation: Dizziness (N=279) | TEAE leading to permanent discontinuation: Musculoskeletal and Connective Tissue Disorders (N=279) | TEAE leading to permanent discontinuation: Rectal Haemorrhage (N=279)
9 (3%) n (%): TEAE: Vomiting NOS
4 (1%) n (%): TEAE: Rectal Haemorrhage | TEAE: Triglyceride Analyses | TEAE leading to permanent discontinuation: General Disorders and Administration Site Conditions (N=279) | TEAE leading to permanent discontinuation: Nervous System Disorders (N=279)
8 (3%) n (%): TEAE: Skeletal and Cardiac Muscle Analyses | TEAE: Upper Respiratory Tract Infection NOS | TEAE: Viral Infections NEC
217 (78%) n (%): TEAE: Total Number of Subjects with at Least One TEAE
6 (2%) n (%): TEAE: Urinalysis NEC | TEAE leading to permanent discontinuation: Abdominal Pain NOS (N=279)
1 (<1%) n (%): TEAE: Protein Urine Present | TEAE: Pruritus Ani | TEAE: Rectal Disorder NOS | TEAE: Red Blood Cells Urine | TEAE: Renal Bruit | TEAE: Rheumatoid Arthritis | TEAE: Rheumatoid Arthritis Aggravated | TEAE: Rotator Cuff Syndrome | TEAE: Sinusitis Acute NOS | TEAE: Skin Infection NOS | TEAE: Somnolence | TEAE: Speech and Language Abnormalities | TEAE: Spinal Cord and Nerve Root Disorders NEC | TEAE: Spondylitic Myelopathy | TEAE: Stomach Discomfort | TEAE: Tinea Cruris | TEAE: Tinea Infections | TEAE: Tissue Enzyme Analyses NEC | TEAE: Tooth Abscess | TEAE: Tooth Infection | TEAE: Toothache | TEAE: Tremor | TEAE: Tremor (Excl Congenital) | TEAE: Trigger Finger | TEAE: Upper Limb Fractures and Dislocations | TEAE: Urine Bilirubin Increased | TEAE: Weight Decreased | TEAE: White Blood Cell Analyses | TEAE leading to permanent discontinuation: Back Pain (N=279) | TEAE leading to permanent discontinuation: Bladder Prolapse (N=279) | TEAE leading to permanent discontinuation: Chest Discomfort (N=279) | TEAE leading to permanent discontinuation: Chest Pain (N=279) | TEAE leading to permanent discontinuation: Chest Wall Pain (N=279) | TEAE leading to permanent discontinuation: Colitis Ischaemic (N=279) | TEAE leading to permanent discontinuation: Cough (N=279) | TEAE leading to permanent discontinuation: Depression (N=279) | TEAE leading to permanent discontinuation: Diarrhoea Aggravated (N=279) | TEAE leading to permanent discontinuation: Diarrhoea Haemorrhagic (N=279) | TEAE leading to permanent discontinuation: Dyspepsia (N=279) | TEAE leading to permanent discontinuation: Epigastric Discomfort (N=279) | TEAE leading to permanent discontinuation: Eye Disorders (N=279) | TEAE leading to permanent discontinuation: Faecal Impaction (N=279) | TEAE leading to permanent discontinuation: Faecal Incontinence (N=279) | TEAE leading to permanent discontinuation: Fatigue (N=279) | TEAE leading to permanent discontinuation: Fibroma NOS (N=279) | TEAE leading to permanent discontinuation: Gastrointestinal Motility Disorder NOS (N=279) | TEAE leading to permanent discontinuation: Haemorrhoidal Haemorrhage (N=279) | TEAE leading to permanent discontinuation: Hallucination NOS (N=279) | TEAE leading to permanent discontinuation: Hallucination, Auditory (N=279) | TEAE leading to permanent discontinuation: Lethargy (N=279) | TEAE leading to permanent discontinuation: Psychiatric Disorders (N=279) | TEAE leading to permanent discontinuation: Psychotic Disorder NOS (N=279) | TEAE leading to permanent discontinuation: Rash Macular (N=279) | TEAE leading to permanent discontinuation: Rash NOS (N=279) | TEAE leading to permanent discontinuation: Rectal Disorder NOS (N=279) | TEAE leading to permanent discontinuation: Rectal Tenesmus (N=279) | TEAE leading to permanent discontinuation: Renal and Urinary Disorders (N=279) | TEAE leading to permanent discontinuation: Respiratory, Thoracic and Mediastinal Disorders (N=279) | TEAE leading to permanent discontinuation: Stomach Discomfort (N=279) | TEAE leading to permanent discontinuation: Suicidal Ideation (N=279)
10 (4%) n (%): TEAE: Rhinoviral Infections | TEAE: Urinary Tract Infection NOS
21 (8%) n (%): TEAE leading to permanent discontinuation: Constipation (N=279)
19 (7%) n (%): TEAE: Upper Respiratory Tract Infections - Pathogen Class Unspecified
12 (4%) n (%): TEAE: Urinary Tract Infections
13 (5%) n (%): TEAE: Sinusitis NOS
40 (14%) n (%): TEAE leading to permanent discontinuation: Gastrointestinal Disorders (N=279)
0 n (%): TEAE: Rectal Cramps | TEAE: Red Blood Cell Analyses | TEAE: Reproductive Organ and Breast Histopathology Procedures | TEAE: Respiratory Tract Infection NOS | TEAE: Rib Fracture | TEAE: Road Traffic Accident | TEAE: Seizures and Seizure Disorders NEC | TEAE: Sinus Headache | TEAE: Site Specific Injuries NEC | TEAE: Skin Fungal Infection NOS | TEAE: Soft Tissue Disorders NEC | TEAE: Spondyloarthropathies | TEAE: Spondylosis | TEAE: Staphylococcal Infection NOS | TEAE: Staphylococcal Infections | TEAE: Status Epilepticus | TEAE: Streptococcal Infection NOS | TEAE: Stress Fracture | TEAE: Temporomandibular Joint Disorder NOS | TEAE: Tension Headaches | TEAE: Thoracic Cage Fractures and Dislocations | TEAE: Tinea Pedis | TEAE: Tongue Coated | TEAE: Tongue Signs and Symptoms | TEAE: Tooth Disorder NOS | TEAE: Tooth Impacted | TEAE: Transient Global Amnesia | TEAE: Umbilical Hernia NOS | TEAE: Umbilical Hernias | TEAE: Urine Analysis Abnormal NOS | TEAE: Urobilin Urine Present | TEAE: Vasovagal Attack | TEAE: Weight Increased | TEAE: White Blood Cell Count Decreased | TEAE: White Blood Cells Urine Positive | TEAE leading to permanent discontinuation: Abdominal Pain Aggravated (N=279) | TEAE leading to permanent discontinuation: Alanine Aminotransferase Increased (N=279) | TEAE leading to permanent discontinuation: Angina Pectoris (N=279) | TEAE leading to permanent discontinuation: Appendicitis (N=279) | TEAE leading to permanent discontinuation: Asthma Aggravated (N=279) | TEAE leading to permanent discontinuation: Asthma NOS (N=279) | TEAE leading to permanent discontinuation: Blood Bilirubin Increased (N=279) | TEAE leading to permanent discontinuation: Blood Pressure Increased (N=279) | TEAE leading to permanent discontinuation: Blood Urine Present (N=279) | TEAE leading to permanent discontinuation: Bone Neoplasm Malignant (N=279) | TEAE leading to permanent discontinuation: Cardiac Disorders (N=279) | TEAE leading to permanent discontinuation: Dehydration (N=279) | TEAE leading to permanent discontinuation: Ear and Labyrinth Disorders (N=279) | TEAE leading to permanent discontinuation: Eructation (N=279) | TEAE leading to permanent discontinuation: Faecal Abnormality NOS (N=279) | TEAE leading to permanent discontinuation: Faeces Hard (N=279) | TEAE leading to permanent discontinuation: Gastric Irritation (N=279) | TEAE leading to permanent discontinuation: Headache NOS Aggravated (N=279) | TEAE leading to permanent discontinuation: Heart Rate Increased (N=279) | TEAE leading to permanent discontinuation: Hepatobiliary Disorders (N=279) | TEAE leading to permanent discontinuation: Hepatosplenomegaly NOS (N=279) | TEAE leading to permanent discontinuation: Hiatus Hernia (N=279) | TEAE leading to permanent discontinuation: Investigations (N=279) | TEAE leading to permanent discontinuation: Irritable Bowel Syndrome Aggravated (N=279) | TEAE leading to permanent discontinuation: Metabolism and Nutrition Disorders (N=279) | TEAE leading to permanent discontinuation: Migraine NOS (N=279) | TEAE leading to permanent discontinuation: Muscle Cramps (N=279) | TEAE leading to permanent discontinuation: Nausea (N=279) | TEAE leading to permanent discontinuation: Pregnancy, Puerperium and Perinatal Conditions (N=279) | TEAE leading to permanent discontinuation: Pruritus NOS (N=279) | TEAE leading to permanent discontinuation: Somnolence (N=279)
3 (1%) n (%): TEAE: Renal Function Analyses | TEAE: Streptococcal Infections | TEAE: Tendon Disorders | TEAE leading to permanent discontinuation: Abdominal Pain Upper (N=279) | TEAE leading to permanent discontinuation: Headache NOS (N=279) | TEAE leading to permanent discontinuation: Neoplasms Benign, Malignant and Unspecified (Incl Cysts and Polyps) (N=279) | TEAE leading to permanent discontinuation: Skin and Subcutaneous Tissue Disorders (N=279)

— patent publication US20070093520A1, “Method of treatment of diarrhea-predominant irritable bowel syndrome in a subject” (priority 2005, published 2007)
